# Measured values as given in patent US20140161767A1, “FOLLICLE-STIMULATING HORMONE (FSH)/LYTIC DOMAIN FUSION CONSTRUCTS AND METHODS OF MAKING AND USING SAME” (BOARD OF SUPERVISORS OF LOUISIANA STATE UNIVERSITY AND …, priority 2012, published 2014).
# Tests used:
# [1] = tested on: OVCAR-3; assay: Cell viability after 4 hours (Cell Titer Glo), OVCAR-3; format: cell-based, human; conditions: 4 h incubation; read-out: Activities [μM] OVCAR-3 (p41)
# Procedure: (§1) Human ovarian cancer cell lines OVCAR-3 (p 41), SKOV-3 (p 35) and the human uterine sarcoma cell line MES-SA-Dx5 (p 61) (multi-drug resistant clone), the human pancreatic cancer cell line Panc-1 (passage number 18), and human triple negative breast cancer cell line MDA-MB-231 (passage number 47) were grown in ATCC recommended medium, 10% fetal bovine serum, 100 IU/ml penicillin, 100 microg/ml streptomycin. Cells were typically seeded (2,000 cells per well) into 96 well plates and media was replaced after 48 hours of incubation. […] Each Phor-18-hFSH-β81-89 conjugate provided in lyophilized form was dissolved in saline and added to cells. The duration of incubation was 4 hours at 37° C. Cell viability was assessed after 4 hours using a luminometric assays (Promega, Cell Titer Glo, G755B, lot #00000031421). Controls contained saline or 0.1% triton as reference for 0 and 100% cell death, respectively.
# (§2) Data were processed and analyzed using GraphPad Prism version 5.00 for Windows, GraphPad Software, San Diego Calif. USA, www.graphpad.com”. Statistical analysis for significance was determined by a two-tailed Student's T-test. Each study was conducted to achieve an N of at least 6.
# (§3) In vitro activities were expressed as IC50 values for each cell line, time point and compound tested that were calculated using the Hill equation (Graph Pad Prizm software).
# [2] = tested on: MES-SA-Dx5; assay: Cell viability after 4 hours (Cell Titer Glo), MES-SA-Dx5; format: cell-based, human; conditions: 4 h incubation; read-out: Activities [μM] MES-SA-Dx5 (p61)
# Procedure: as §1, §2, §3
# [3] = tested on: Panc-1; assay: Cell viability after 4 hours (Cell Titer Glo), Panc-1; format: cell-based, human; conditions: 4 h incubation; read-out: Activities [μM] Panc1 (p18)
# Procedure: as §1, §2, §3
# [4] = tested on: MDA-MB-435S.luc xenograft; assay: Mouse xenograft model of breast cancer, βCG fusion constructs; format: in vivo, mice; conditions: weekly bolus injections, days 13, 19, 25
# Procedure: This example describes in vivo studies in a mouse xenograft model of breast cancer with various types and doses of βCG- and LHRH-fusion constructs.
# Female Nu/Nu mice were injected subcutaneously with a MDA-MB-435S.luc/Matrigel HC suspension (1×10^6 cells). In brief, treatment started on day 13 after tumor cell injection and continued on day 19 and 25. […] The doses for weekly injections were 5, 1 and 0.01 mg/kg body weight, given as a bolus single injection.
# The effect of cytolytic peptide injections on the primary tumors is illustrated in FIG. 8. In brief, the FIGS. 8A-8C show tumor volume during the course of the study for each individual peptide. FIGS. 8D-8G show tumor characteristics at necropsy: tumor volume (D), tumor weight (E), live tumor cells (F), tumor conditions (G).
# Treatment efficacy was calculated as difference between measurements at the beginning of treatment compared to the measurement at the end of study (FIG. 8H-8I). […] Viability of cells in the tumors was determined at the end of the study when tumors were measured for luciferase activity.
# [5] = tested on: MCF-7 xenograft; assay: MCF-7 breast cancer xenograft; format: in vivo, mice; conditions: MCF-7, 2 × 3 wk, 19 d
# Procedure: In vivo efficacy studies were conducted as monotherapy, or a combination therapy with standard of care treatments in nude mice bearing human breast cancer xenografts: MDA-MB-435S.luc (s.c.), MCF-7 (estrogen receptor alpha positive), human ovarian cancer xenografts: OVCAR-3, (s.c.), human prostate cancer xenografts: PC-3 (androgen receptor negative).
# Mice were sacrificed one week after the last injection and blood collected for chemistry panel, tumor weights and body weights were recorded. Part of the tumors were fixed in PBS buffered 10% formalin for histological evaluation.
# [6] = tested on: OVCAR-3; assay: IC50 in human cancer cell lines compared to cisplatinum: OVCAR-3; format: cell-based; conditions: ovarian cancer cell line
# Procedure: MDA-MB-435S.luc cells were grown in Leibovitz's L 15 medium, 10% fetal bovine serum, 0.01 mg/ml bovine insulin, 100 IU/ml penicillin, 100 microg/ml streptomycin. The cells were cultured in tight closed flasks. The incubations were conducted using 96 well plates at 10,000 cells per well. Cells were typically seeded into 96 well plates and media was replaced after 48 hours of incubation. Each assay was conducted at increasing concentrations of 0, 0.001, 0.01, 0.05, 0.1, 0.5, 1, 2, 5, 10 and 100 micromolar doses of lytic peptide-binding domain conjugate. Each lytic peptide-binding domain conjugate provided in lyophilized form and was freshly dissolved in saline and added to cells. The duration of incubation was typically 24 h, and cell viability assays were conducted using formazan conversion assays (MTT assay). Controls contained saline or 0.1% triton as reference for 0 and 100% cell death, respectively.
# To ascertain the IC50 of various fusion constructs on different human cancer cell lines compared to cisplatinum, IC50 of fusion constructs were evaluated as in Table 3.
# [7] = tested on: MDA-MB-435S xenograft; assay: MDA-MB-435S xenograft, kinetics of tumor destruction after a single injection; format: in vivo, mice; conditions: single i.v. injection, 0.2 and 2 mg/kg
# Procedure: In brief, Nu/Nu female mice, outbred strain, age 5 weeks (Charles River), were injected (s.c.) into the interscapular region with a MDA-MB-435S (passage #249)/Matrigel suspension (2.4×10^6 cells/mouse) as described in Example 10. […] The doses were given as a single bolus intravenous injection via lateral tail vein.
# Mice were sacrificed 1, 2 and 16 hours after treatment with Phor 18-LHRH (338613) or saline. At study endpoint body weight, tumor weights were determined and tumors were fixed in phosphate buffered 10% formalin.
# [8] = tested on: NIH:3T3; format: cell-based, mouse; conditions: non cancerous cell line 3T3
# Text: Membranes of non-cancerous cell lines are neutral and are resistant to cytolytic peptides, in contrast to cancer cell lines, which have a high phosphatidic acid content in their outer membrane.
# The breast cancer cell lines studied were MDA-MB-4355 (estrogen receptor alpha negative), MCF-7 and T47D (estrogen receptor alpha positive), ovarian cancer cell lines (OVCAR-3 and SKOV-3), prostate cancer (LNCaP), the non-malignant breast epithelial cell line MCF-10A and the mouse fibroblast cell line NIH:3T3.
# Cells were seeded into 96 well plates at a densitiy of 10,000 cells/well. […] Controls contained USP saline or 0.1% TritonX-100™ as reference for 0 and 100% cell death, respectively. […] Cell viability was assessed through formazan conversion assay (MTT assay, (CellTiter 96 Aqueous One, Promega # G3582). Formazan conversion was determined using a BioRad Benchmark Plus microplate spectrophotometer dual wavelengths at 490/630 nm at room temperature).
# Data were calculated as fraction of absorption in TritonX-100™ containing wells representing 100% cell death versus 0% cell death in saline containing wells. Cytotoxicity was determined as IC50 using GraphPad Prism version 5.01 for Windows, GraphPad Software, San Diego Calif. […] 4 wells of each individual set of two 96 well plates were compared and analyzed. Statistical analysis for significance was determined by a two-tailed Student's T-test.
Substance,IC50 [1] [µM],IC50 [2] [µM],IC50 [3] [µM],Tumor volume compared to saline controls [4],"Median Tumor Weight vs Saline P < 0.05 (dose, growth delay) [5] [mg/kg growth]",IC50 [6] [µM],Time after injection to destruction of tumors [7] [h],IC50 [8] [µM]
KFAKFAK KFAKFAK KFAK [Phor18],20.5 ± 5.1,28.1 ± 2.5,18.9 ± 0.2,ineffective,,,,
KFAKFAKKFAKFAKKFAKQHWSYGLRPG [Phor18-LHRH],,,,,0.02,3 ± 0.5,1,> 10
